Source: patent US9480668B2, “Blood flow promoting agent” (KYOWA HAKKO BIO CO., LTD., priority 2012, dated 2016)

Experiments:
[1] = system: thoracic aorta isolated from a rat; experiment: Magnus method: vasodilatory potency on aortic ring, relaxation of Norepinephrine 0.3 μM-induced contraction; conditions: L-citrulline 1000 μM, single addition; vasoconstriction induced by 0.3 μM Norepinephrine
[2] = sublingual treatment, concentration-dependent; non-patent document 3; cited from earlier work

Compound: NC(=O)NCCC[C@H](N)C(=O)O [L-citrulline]
- vascular relaxation rate (%) [1]: 15-20%

Compound: COc1cc(CNC(=O)CCCCC=CC(C)C)ccc1O [capsaicin, 8-methyl-N-vanillyl-6-nonenamide]
- concentration of capsaicin solution producing a feeling of strong pain [2]: not less than 75 μM
